Here are results for 16 compounds from patent US20230322761A1, “DEGRADATION OF BRUTON'S TYROSINE KINASE (BTK) BY CONJUGATION OF BTK INHIBITORS WITH E3 LIGASE LIGAND AND METHODS OF USE” (BEIGENE, LTD., priority 2020, published 2023).

The target of the assay is T1, BTK (Homo sapiens, UniProt Q06187).
T1 construct: endogenous in cells; host or cells: TMD-8 cells
Briefly: BTK degradation in TMD-8 cells, HTRF assay after 6 h treatment. As to conditions: for DC50: IC50 (DC50) of BTK degradation; for Dmax: TMD8, maximum percentage of inhibition (degradation). The class given is cell-based. On the procedure:
TMD-8 cells are treated with compounds diluted in 0.2% DMSO, dilution is done according to the following protocol: (1) make 500× stock solution in DMSO from 1 mM by 6-fold dilution, total 8 doses were included; (2) make 2× solution in cell culture medium by transferring 0.5 μl 500× stock solution into 125 μl medium; (3) 15 μl of 2× solution is added to cells and incubate for 6 h.
After 6 h treatment, add 10 μl 4×lysis buffer to each well; seal the plate and incubate 30 min at room temperature on a plate shaker; Once the cells are lysed, 16 μL of cell lysate are transferred to a PE 384-well HTRF detection plate; 4 μL of pre-mixed HTRF antibodies are added to each well; Cover the plate with a plate sealer, spin 1000 rpm for 1 min, Incubate overnight at room temperature; Read on BMG PheraStar with HTRF protocol (337 nm-665 nm-620 nm).
The IC50 (DC50) value of a compound can be obtained by fitting the following equation
Y=Bottom+(TOP−Bottom)/(1+((IC50/X)^hillslope))
Wherein, X and Y are known values, and IC50, Hillslope, Top and Bottom are the parameters obtained by fitting with software. Y is the inhibition percentage (calculated from the equation), X is the concentration of the compound; IC50 is the concentration of the compound when the 50% inhibition is reached. The smaller the IC50 value is, the stronger the inhibitory ability of the compound is. Vice versa, the higher the IC50 value is, the weaker the ability the inhibitory ability of the compound is; Hillslope represents the slope of the fitted curve, generally around 1*; Bottom represents the minimum value of the curve obtained by data fitting, which is generally 0%±20%; Top represents the maximum value of the curve obtained by data fitting, which is generally 100%±20%. The experimental data were fitted by calculating and analyzing with Dotmatics data analysis software.
In general terms: TR-FRET usually uses a lanthanide donor and a delayed reading to cut background.

T1 sequence (Q06187 whole entry): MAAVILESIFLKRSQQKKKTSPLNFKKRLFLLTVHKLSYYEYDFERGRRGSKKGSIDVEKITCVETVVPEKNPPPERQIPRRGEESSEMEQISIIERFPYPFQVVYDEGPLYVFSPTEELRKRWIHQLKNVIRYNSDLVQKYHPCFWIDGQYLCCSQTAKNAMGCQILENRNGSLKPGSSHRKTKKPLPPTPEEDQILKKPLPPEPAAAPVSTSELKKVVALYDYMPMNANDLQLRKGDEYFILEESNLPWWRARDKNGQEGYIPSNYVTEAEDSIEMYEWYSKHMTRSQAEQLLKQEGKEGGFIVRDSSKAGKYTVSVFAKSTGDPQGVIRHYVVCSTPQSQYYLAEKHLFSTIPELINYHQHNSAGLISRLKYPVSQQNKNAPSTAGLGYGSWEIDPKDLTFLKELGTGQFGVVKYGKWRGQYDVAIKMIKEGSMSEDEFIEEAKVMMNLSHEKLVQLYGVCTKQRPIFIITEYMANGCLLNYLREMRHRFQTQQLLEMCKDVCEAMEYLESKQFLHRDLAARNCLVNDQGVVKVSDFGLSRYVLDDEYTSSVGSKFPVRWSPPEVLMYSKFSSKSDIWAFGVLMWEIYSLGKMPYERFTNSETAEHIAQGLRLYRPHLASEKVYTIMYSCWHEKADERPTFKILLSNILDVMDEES

In the case of `COc1ccc(C(=O)N2CCC(c3ccc(-c4cnc5[nH]nc(-c6ccc(CNC(=O)c7nc(C(C)(C)C)no7)c(F)c6)c5c4)cc3)CC2)cc1N1CCC(=O)NC1=O` [Example 18, 3-(tert-butyl)-N-(4-(5-(4-(1-(3-(2,4-dioxotetrahydropyrimidin-1(2H)-yl)-4-methoxybenzoyl)piperidin-4-yl)phenyl)-1H-pyrazolo[3,4-b]pyridin-3-yl)-2-fluorobenzyl)-1,2,4-oxadiazole-5-carboxamide], the DC50 (commonly the concentration at which degradation of the target reaches its halfway point) was over 2000 nM and the maximal degradation (Dmax) (in general, the largest share of the target that was removed) is 3.39%.
Turning to `Cc1c(-c2n[nH]c3ncc(-c4ccc(C5CCN(CCc6ccc(C7CCC(=O)NC7=O)cc6)CC5)cc4)cc23)ccc(CNC(=O)c2nc(C(C)(C)C)no2)c1F` (centres unmarked) [Example 19, 3-(tert-butyl)-N-(4-(5-(4-(1-(4-(2,6-dioxopiperidin-3-yl)phenethyl)piperidin-4-yl)phenyl)-1H-pyrazolo[3,4-b]pyridin-3-yl)-2-fluoro-3-methylbenzyl)-1,2,4-oxadiazole-5-carboxamide], the 50% degradation concentration (DC50) was 16.9 nM and the Dmax was 92.8%.
The compound `Cc1cc(-c2n[nH]c3ncc(-c4ccc(N5CCN(CC6CCN(c7ccc(N8CCC(=O)NC8=O)cc7)CC6)CC5)cc4)cc23)ccc1CNC(=O)c1nc(C(C)(C)C)no1` [Example 20, 3-(tert-butyl)-N-(4-(5-(4-(4-((1-(4-(2,4-dioxotetrahydropyrimidin-1(2H)-yl)phenyl)piperidin-4-yl)methyl)piperazin-1-yl)phenyl)-1H-pyrazolo[3,4-b]pyridin-3-yl)-2-methylbenzyl)-1,2,4-oxadiazole-5-carboxamide] registered a DC50 of 3.95 nM and a Dmax of 96.4%.
In turn, `Cc1cc(-c2n[nH]c3ncc(-c4ccc(N5CCN(CC6CCN(c7ccc(N8CCC(=O)NC8=O)cc7)CC6)CC5)cc4)cc23)ccc1[C@@H](C)NC(=O)c1nc(C(C)(C)C)no1` [Example 21, (R)-3-(tert-butyl)-N-(1-(4-(5-(4-(4-((1-(4-(2,4-dioxotetrahydropyrimidin-1(2H)-yl)phenyl)piperidin-4-yl)methyl)piperazin-1-yl)phenyl)-1H-pyrazolo[3,4-b]pyridin-3-yl)-2-methylphenyl)ethyl)-1,2,4-oxadiazole-5-carboxamide] registered a DC50 of 8.62 nM and a Dmax of 97.5%.
Take `Cc1cc(-c2n[nH]c3ncc(-c4ccc(N5CCN(CC6CCN(c7ccc(N8CCC(=O)NC8=O)cc7)CC6)CC5)cc4)cc23)ccc1CNC(=O)c1noc(C(C)(C)C)n1` [Example 22, 5-(tert-butyl)-N-(4-(5-(4-(4-((1-(4-(2,4-dioxotetrahydropyrimidin-1(2H)-yl)phenyl)piperidin-4-yl)methyl)piperazin-1-yl)phenyl)-1H-pyrazolo[3,4-b]pyridin-3-yl)-2-methylbenzyl)-1,2,4-oxadiazole-3-carboxamide]: half-maximal degradation (DC50) was put at 9.1 nM and the Dmax worked out at 97.6%.
Turning to `Cc1cc(-c2n[nH]c3ncc(-c4ccc(C5CCN(CCC6CCN(c7ccc(N8CCC(=O)NC8=O)c(Cl)c7)CC6)CC5)cc4)cc23)ccc1CNC(=O)c1nc(C(C)(C)C)no1` [Example 23, 3-(tert-butyl)-N-(4-(5-(4-(1-(2-(1-(3-chloro-4-(2,4-dioxotetrahydropyrimidin-1(2H)-yl)phenyl)piperidin-4-yl)ethyl)piperidin-4-yl)phenyl)-1H-pyrazolo[3,4-b]pyridin-3-yl)-2-methylbenzyl)-1,2,4-oxadiazole-5-carboxamide], the DC50 was 4.04 nM and the Dmax was found to be 96%.
The like results for `Cc1cc(-c2n[nH]c3ncc(-c4ccc(C5CCN(CCCOc6ccc(NC7CCC(=O)NC7=O)c(C)c6)CC5)cc4)cc23)ccc1CNC(=O)c1nc(C(C)(C)C)no1` (centres unmarked) [Example 24, 3-(tert-butyl)-N-(4-(5-(4-(1-(3-(4-((2,6-dioxopiperidin-3-yl)amino)-3-methylphenoxy)propyl)piperidin-4-yl)phenyl)-1H-pyrazolo[3,4-b]pyridin-3-yl)-2-methylbenzyl)-1,2,4-oxadiazole-5-carboxamide] were, in that order, 4.62 nM and 97.3%.
The like results for `Cc1cc(-c2n[nH]c3ncc(-c4ccc(C5CCN(CCc6ccc(C7CCC(=O)NC7=O)c7ccccc67)CC5)cc4)cc23)ccc1CNC(=O)c1nc(C(C)(C)C)no1` (centres unmarked) [Example 25, 3-(tert-butyl)-N-(4-(5-(4-(1-(2-(4-(2,6-dioxopiperidin-3-yl)naphthalen-1-yl)ethyl)piperidin-4-yl)phenyl)-1H-pyrazolo[3,4-b]pyridin-3-yl)-2-methylbenzyl)-1,2,4-oxadiazole-5-carboxamide] were, in that order, 8.16 nM and 96.7%.
`Cc1cc(-c2n[nH]c3ncc(-c4ccc(C5CCN(CCc6ccc(C7CCC(=O)NC7=O)c7c6CCCC7)CC5)cc4)cc23)ccc1CNC(=O)c1nc(C(C)(C)C)no1` (centres unmarked) [Example 26, 3-(tert-butyl)-N-(4-(5-(4-(1-(2-(4-(2,6-dioxopiperidin-3-yl)-5,6,7,8-tetrahydronaphthalen-1-yl)ethyl)piperidin-4-yl)phenyl)-1H-pyrazolo[3,4-b]pyridin-3-yl)-2-methylbenzyl)-1,2,4-oxadiazole-5-carboxamide] showed a DC50 of 28.9 nM and a Dmax of 94.3%.
The like results for `Cc1cc(-c2n[nH]c3ncc(-c4ccc(C5CCN(CCCOc6ccc(C7CCC(=O)NC7=O)c(C)c6)CC5)cc4)cc23)ccc1CNC(=O)c1nc(C(C)(C)C)no1` (centres unmarked) [Example 27, 3-(tert-butyl)-N-(4-(5-(4-(1-(3-(4-(2,6-dioxopiperidin-3-yl)-3-methylphenoxy)propyl)piperidin-4-yl)phenyl)-1H-pyrazolo[3,4-b]pyridin-3-yl)-2-methylbenzyl)-1,2,4-oxadiazole-5-carboxamide] were, in that order, 9.25 nM and 95.3%.
In the case of `COc1cc(N2CCC(CCN3CCC(c4ccc(-c5cnc6[nH]nc(-c7ccc(CNC(=O)c8nc(C(C)(C)C)no8)c(C)c7)c6c5)cc4)CC3)CC2)ccc1N1CCC(=O)NC1=O` [Example 28, 3-(tert-butyl)-N-(4-(5-(4-(1-(2-(1-(4-(2,4-dioxotetrahydropyrimidin-1(2H)-yl)-3-methoxyphenyl)piperidin-4-yl)ethyl)piperidin-4-yl)phenyl)-1H-pyrazolo[3,4-b]pyridin-3-yl)-2-methylbenzyl)-1,2,4-oxadiazole-5-carboxamide], the DC50 came to 2.54 nM and the Dmax was determined as 97.1%.
In turn, `Cc1cc(-c2n[nH]c3ncc(-c4ccc(C5CCN(CCc6ccc(OC7CCC(=O)NC7=O)cc6)CC5)cc4)cc23)ccc1CNC(=O)c1nc(C(C)(C)C)no1` (centres unmarked) [Example 29, 3-(tert-butyl)-N-(4-(5-(4-(1-(4-((2,6-dioxopiperidin-3-yl)oxy)phenethyl)piperidin-4-yl)phenyl)-1H-pyrazolo[3,4-b]pyridin-3-yl)-2-methylbenzyl)-1,2,4-oxadiazole-5-carboxamide] showed a DC50 of 3.2 nM and a Dmax of 95.4%.
The like results for `COc1cc(OCCCN2CCC(c3ccc(-c4cnc5[nH]nc(-c6ccc(CNC(=O)c7nc(C(C)(C)C)no7)c(C)c6)c5c4)cc3)CC2)ccc1C1CCC(=O)NC1=O` (centres unmarked) [Example 30, 3-(tert-butyl)-N-(4-(5-(4-(1-(3-(4-(2,6-dioxopiperidin-3-yl)-3-methoxyphenoxy)propyl)piperidin-4-yl)phenyl)-1H-pyrazolo[3,4-b]pyridin-3-yl)-2-methylbenzyl)-1,2,4-oxadiazole-5-carboxamide] were, in that order, 8.19 nM and 97.5%.
Consider `Cc1cc(-c2n[nH]c3ncc(-c4ccc(N5CCN(CC6CCN(c7ccc(N8CCC(=O)NC8=O)cc7)CC6)CC5)cc4)cc23)ccc1CNC(=O)c1cn(C(C)(C)C)nn1` [Example 31, 1-(tert-butyl)-N-(4-(5-(4-(4-((1-(4-(2,4-dioxotetrahydropyrimidin-1(2H)-yl)phenyl)piperidin-4-yl)methyl)piperazin-1-yl)phenyl)-1H-pyrazolo[3,4-b]pyridin-3-yl)-2-methylbenzyl)-1H-1,2,3-triazole-4-carboxamide], for which the DC50 is 21.8 nM and the Dmax came to 97.4%.
On to `Cc1cc(-c2n[nH]c3ncc(-c4ccc(N5CCN(CC6CCN(c7ccc(N8CCC(=O)NC8=O)cc7)CC6)CC5)cc4)cc23)ccc1CNC(=O)c1cnn(C(C)(C)C)c1` [Example 32, 1-(tert-butyl)-N-(4-(5-(4-(4-((1-(4-(2,4-dioxotetrahydropyrimidin-1(2H)-yl)phenyl)piperidin-4-yl)methyl)piperazin-1-yl)phenyl)-1H-pyrazolo[3,4-b]pyridin-3-yl)-2-methylbenzyl)-1H-pyrazole-4-carboxamide], for which the DC50 was found to be 2.55 nM and the Dmax was found to be 93.6%.
In turn, `Cc1cc(-c2n[nH]c3ncc(-c4ccc(N5CCN(CCc6ccc(C7CCC(=O)NC7=O)cc6)CC5)cc4)cc23)ccc1[C@@H](C)NC(=O)c1nc(C(C)(C)C)no1` (stereo partly drawn) [Example 33, 3-(tert-butyl)-N-((1R)-1-(4-(5-(4-(4-(4-(2,6-dioxopiperidin-3-yl)phenethyl)piperazin-1-yl)phenyl)-1H-pyrazolo[3,4-b]pyridin-3-yl)-2-methylphenyl)ethyl)-1,2,4-oxadiazole-5-carboxamide] gave a DC50 of 3.85 nM and a Dmax of 99.4%.
